According to patent US7195918B2 (priority 2003, dated 2007):

Experiments:
A. succinogenes 130Z = assay: Antibiotic minimum inhibitory concentrations: growth of A. succinogenes 130Z in liquid medium A with antibiotics; format: cell-based, Actinobacillus succinogenes; settings: 37° C.; for OD660 after 7 days culture: 5 μg/ml antibiotic; for antibiotic concentration in whose presence no growth was detected / antibiotic concentration in whose presence very slow growth was observed / antibiotic concentration in whose presence A. succinogenes 130Z grew perfectly well: 7 days, OD660
Description: Antibiotic minimum inhibitory concentrations. To determine the sensitivity of A. succinogenes 130Z to antibiotics, the growth of A. succinogenes 130Z was tested in medium A (liquid medium) containing a series of antibiotics commonly used in bacteriology. One ml of 130Z preculture was inoculated into 9 ml of medium A containing each antibiotic and incubated at 37° C. for 7 days. Cell growth was followed by measuring OD660.
Resistance of A. succinogenes to antibiotics. A. succinogenes 130Z grew perfectly well in the presence of 50 μg/ml kanamycin or 30 μg/ml streptomycin. […] No growth was detected in the presence of 10 μg/ml ampicillin, 1 μg/ml chloramphenicol, 5 μg/ml tetracycline, or 10 μg/ml erythromycin. A. succinogenes is sensitive to low concentrations of ampicillin, chloramphenicol, erythromycin, and tetracycline, so the corresponding resistance genes (i.e., Amp^R, Cm^R, Tet^R, and Ery^R) could be used as selection markers on plasmids used to transform A. succinogenes. We discovered that the Tn3 Amp^R gene carried by pGZRS-19 is naturally expressed in A. succinogenes.

[1] = tested on: A. succinogenes 130Z cells harboring pLGZ921 and pLGZ922; assay: Growth of plasmid-harboring A. succinogenes 130Z on TS-agar plates with tetracycline or chloramphenicol; format: cell-based, Actinobacillus succinogenes
Text: Expression of Tet^R and Cm^R in A. succinogenes. We need several markers to conveniently engineer A. succinogenes. One can be used to label a gene deletion, while another one can be used to select for the maintenance of a recombinant gene on a plasmid replicon. To determine whether, once expressed, Cm^R and Tet^R could be used as selective markers in A. succinogenes, the Tn9 Cm^R and Tn10 Tet^R genes were cloned into pLGZ920 under control of the A. succinogenes pckA promoter, yielding plasmids pLGZ921 and pLGZ922, respectively. After electroporation, A. succinogenes 130Z cells harboring pLGZ921 and pLGZ922 were spread on TS-agar (30 g/l TS, 10 g/l glucose) plates containing variable amounts of tetracycline and chloramphenicol (FIG. 9). Strains […] plated on chloramphenicol plates and […] plated on tetracycline plates were used as the negative controls. […] In contrast, strain […] grew on plates containing up to 5.0 μg/ml tetracycline. Chloramphenicol-sensitive 130Z(pLGZ921) strain grew on plates containing up to 0.4 μg/ml […], but not on plates containing higher chloramphenicol concentrations. Strain […] grew on plates containing up to 5.0 μg/ml chloramphenicol.

SMILES | OD660 after 7 days culture (A. succinogenes 130Z) | antibiotic concentration in whose presence no growth was detected (A. succinogenes 130Z) [µg/mL] | antibiotic concentration in whose presence very slow growth was observed (A. succinogenes 130Z) [µg/mL] | antibiotic concentration in whose presence A. succinogenes 130Z grew perfectly well (A. succinogenes 130Z) [µg/mL] | antibiotic concentration up to which strain 130Z(pLGZ922) grew on plates [1]
CC1(C)S[C@@H]2[C@H](NC(=O)[C@H](N)c3ccccc3)C(=O)N2[C@H]1C(=O)O [ampicillin] | approximately 0.05 | 10 | 5 | – | –
O=C(N[C@H](CO)[C@H](O)c1ccc([N+](=O)[O-])cc1)C(Cl)Cl [chloramphenicol] | – | 1 | – | – | –
CC[C@H]1OC(=O)[C@H](C)[C@@H](O[C@H]2C[C@@](C)(OC)[C@@H](O)[C@H](C)O2)[C@H](C)[C@@H](O[C@@H]2O[C@H](C)C[C@H](N(C)C)[C@H]2O)[C@](C)(O)C[C@@H](C)C(=O)[C@H](C)[C@@H](O)[C@]1(C)O [erythromycin] | approximately 0.05 | 10 | 5 | – | –
NC[C@H]1O[C@H](O[C@H]2[C@H](O)[C@@H](O[C@H]3O[C@H](CO)[C@@H](O)[C@H](N)[C@H]3O)[C@H](N)C[C@@H]2N)[C@H](O)[C@@H](O)[C@@H]1O [kanamycin] | – | – | – | 50 | –
[H]/N=C(/N)N[C@H]1[C@H](O)[C@@H](O)[C@H](O[C@@H]2O[C@@H](C)[C@](O)(C=O)[C@H]2O[C@@H]2O[C@@H](CO)[C@H](O)[C@@H](O)[C@@H]2NC)[C@@H](N/C(N)=N\[H])[C@@H]1O [streptomycin] | – | – | – | 30 | –
CN(C)[C@@H]1C(O)=C(C(N)=O)C(=O)[C@@]2(O)C(O)=C3C(=O)c4c(O)cccc4[C@@](C)(O)[C@H]3C[C@@H]12 [tetracycline] | – | 5 | – | – | up to 1.0 μg/ml
